pKd: −log10 of the molar value. Ends that are not written are not given here.
Key:
intracranial U87 tumor = experiment: Anti-glioblastoma efficacy test of intracranial glioma (survival); format: in vivo, nude mice
Description: After the nude mice was anesthetized and fixed with stereotaxic apparatus, intracranial U87 tumor bearing model was established on nude mice by implanted with U87 cells (5×10^5 cells dispersed in 5 μL of PBS buffer for each mouse) in the logarithmic growth phase into the right striatum (0.6 mm in front of […], 1.8 mm in the lateral direction, and 3 mm in depth). The status of naked mice was observed regularly. […] The total dose of DOX was 10 mg/Kg except 2.5 mg/Kg for low dose and 5 mg/kg for medium dose. The ^DVAP dose was the amount of ^DVAP contained in the high dose of ^DVAP-DOX. The survival time of mice were recorded (FIG. 24).

GRP78 protein [1] = biological target: T1, GRP78 protein (Homo sapiens, UniProt P11021); experiment: VAP mutual competition inhibition test on U87 cells (flow cytometry); format: cell-based; design: saturate the receptor protein on the cell surface; endogenous in cells; host or cells: U87 glioma cells; conditions: 4° C., unlabeled peptide before fluorescein-labeled peptide
T1 sequence (P11021 19-654): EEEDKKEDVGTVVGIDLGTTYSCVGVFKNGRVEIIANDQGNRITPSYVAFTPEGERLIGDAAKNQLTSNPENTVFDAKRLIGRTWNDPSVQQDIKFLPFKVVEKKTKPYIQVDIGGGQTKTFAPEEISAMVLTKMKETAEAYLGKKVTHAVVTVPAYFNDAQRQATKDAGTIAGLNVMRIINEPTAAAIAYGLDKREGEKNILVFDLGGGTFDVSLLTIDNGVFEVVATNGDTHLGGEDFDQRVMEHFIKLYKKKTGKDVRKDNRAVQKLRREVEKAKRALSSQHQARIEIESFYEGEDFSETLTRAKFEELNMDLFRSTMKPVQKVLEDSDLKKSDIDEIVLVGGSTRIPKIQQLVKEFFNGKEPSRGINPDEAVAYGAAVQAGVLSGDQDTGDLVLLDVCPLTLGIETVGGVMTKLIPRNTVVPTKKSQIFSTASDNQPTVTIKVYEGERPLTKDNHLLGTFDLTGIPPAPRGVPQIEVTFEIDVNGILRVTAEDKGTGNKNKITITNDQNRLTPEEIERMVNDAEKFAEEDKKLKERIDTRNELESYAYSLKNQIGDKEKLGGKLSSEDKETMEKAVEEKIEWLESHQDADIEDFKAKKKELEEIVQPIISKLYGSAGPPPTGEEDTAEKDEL
Description: U87 cells were digested by trypsin and transferred to EP tubes, washed with PBS three times to remove trypsin, pretreated at 4° C. for 20 min. The prepared peptide solution (non-fluorescent label) was also placed at 4° C. for low temperature pretreatment, then the peptide solution was mixed with the cells and shocked for 2 h to saturate the receptor protein on the cell surface. Then the fluorescein-labeled peptide solution was added.

GRP78 protein [2] = biological target: T1, GRP78 protein; experiment: Binding activity of VAP to GRP78 by surface plasmon resonance (Biacore); conditions: SPR, GRP78 coupled to CM5 chip
Description: Pre-binding analysis was performed by the biacore system, and pH 5.0 was selected as the optimal pH for GRP78 binding to the CMS chip. […] The samples were injected from low to high concentration.

[3] = Serum stability of VAP peptides in mouse serum; format: in vitro ADME; conditions: 50% mouse serum, 37° C., after 2 h incubation
Description: At 0 and 15 min, 0.5, 1, 2 and 4 h, 100 μL solution was taken out and 20 μL trichloroacetic acid (TCA) was added to precipitate protein of the serum, after standing for 20 min at 4° C., the solution was centrifuged at 12,000 rpm for 10 min. 20 μL supernatant was taken for HPLC analysis.

| Compound | AUC0-6h (FIGS. 25A-25B) | MRT0-6h (FIGS. 25A-25B) | T1/2 (FIGS. 25A-25B) | mean survival time (intracranial U87 tumor; total dose of DOX 10 mg/Kg (high dose), tail vein, days 10, 13, 16, 19, 22) | competitive inhibition between VAP peptides (GRP78 protein [1]) | Kd value (dissociation) (GRP78 protein [2]) | residual percentage of intact polypeptide (degradation) [3] | mean survival time (intracranial U87 tumor; ^DVAP alone, amount contained in the high dose of ^DVAP-DOX) | pKd (GRP78 protein [2]) |
| --- | --- | --- | --- | --- | --- | --- | --- | --- | --- |
| COc1cccc2c1C(=O)c1c(O)c3c(c(O)c1C2=O)C[C@@](O)(C(=O)CO)C[C@@H]3O[C@H]1C[C@H](N)[C@H](O)[C@H](C)O1 [DOX, doxorubicin] | 7976 ± 1515 ng·h/mL | 1.836 ± 0.695 h | 2.131 ± 0.646 h | 36 days | – | – | – | – | – |
| CC(C)[C@@H](NC(=O)[C@@H](C)NC(=O)[C@H]1CCCN1)C(=O)N[C@H](CCCNC(=N)N)C(=O)N[C@@H](C(=O)N[C@H](CC(N)=O)C(=O)N[C@H](CO)C(=O)O)[C@H](C)O [^DVAP] | – | – | – | – | completely inhibit each other | 0.02091 s⁻¹ | hardly degraded | 45.5 days | – |
| CC(C)[C@@H](NC(=O)[C@@H](CCCNC(=N)N)NC(=O)[C@H](NC(=O)[C@@H](CC(N)=O)NC(=O)[C@H](N)CO)[C@H](C)O)C(=O)N[C@H](C)C(=O)N1CCC[C@@H]1C(=O)O [^SVAP] | – | – | – | – | completely inhibit each other | 0.02826 s⁻¹ | hardly degraded | – | 5.28 |
| SNTRVAP [^LVAP, reference compound] | – | – | – | – | completely inhibit each other | 0.01898 s⁻¹ | completely degraded | – | – |
